Counter-ions that a name gives are not always drawn.
How the values were obtained:
[1] = test system: Antibody to AB-Pinaca-KLH (raised against immunogen 2 of Example 6); assay: Competitive ELISA characterising antibodies to AB-Pinaca-KLH with Tracer-1 (Example 9); format: binding; conditions: for % CR (percentage cross-reactivity): AB-Pinaca = 100.00; for IC50 (standard concentration which produces 50% inhibition of maximal signal): calibration curves 0-20 ng/ml
Experimental: The wells of an enhanced binding 96 well polystyrene microtitre plate were coated with IgG fraction of antiserum raised to AB-Pinaca-KLH (Immunogen 2 of Example 6), diluted in 10 mM Tris, pH8.5 (125 μl/well). The appropriate antibody coating dilution was determined using standard ELISA checkerboard techniques. The plate was incubated for 2 hours at 37° C., washed 4 times over 10 minutes with Tris buffered saline containing Tween 20 (TBST) and tapped dry. Standard solutions of AB-Pinaca pentanoic acid were prepared in TBST at 0, 0.31, 0.63, 1.25, 2.50, 5.0, 10.0 and 20.0 ng/ml, and 50 μl of each was added to the appropriate wells. 75 μl of Tracer-1 (Example 7) diluted in Tris buffer (pH 7.2) containing EDTA, D-mannitol, sucrose, thimerosal and BSA, was added to each of the wells. The appropriate dilution of tracer was also determined using standard ELISA checkerboard techniques. The plate was incubated at 25° C. for 1 hour. Excess unbound tracer was removed by washing 6 times over a 10-15 minute period with TBST and tapped dry. 125 μl of tetramethylbenzidine (TMB) substrate solution was added to each well of the plate that was then incubated for 20 minutes in the dark at room temperature. The reaction was terminated by addition of 125 μl 0.2 M H2SO4 to each well. The absorbance was measured at 450 nm using a microtitre plate reader. In order to determine the specificity of the competitive ELISAs, standard solutions of a range of structurally similar compounds were prepared in TBST. Using calibration curves generated from these compounds (0-20 ng/ml), the cross-reactivity was determined.

[2] = test system: AB-PINACA antibody (raised against immunogen 2 of Example 6); assay: AB-PINACA ELISA, final validated kit with Tracer-2 (Example 10), specificity; format: binding; conditions: for % Cross-Reactivity: AB-PINACA N-Pentanoic acid = 100
Experimental: A microtitre plates was precoated with AB-PINACA antibody (raised against immunogen 2 of Example 6). Pinaca derivative (antigen), if present in the sample competes with the horseradish peroxidase labelled AB-PINACA (enzyme labelled antigen, herein Tracer-2 of Example 8) for a limited number of antibody sites on the microtitre plate. After incubation at room temperature to allow a competition reaction to take place, the microtitre plate was washed to remove excess reagents. The enzyme substrate ([…]) was added. After an incubation period to allow maximum colour development, the colour reaction was stopped by the addition of acid. This produces a colour change from blue to yellow, and the absorbances are read at 450 nm. A standard curve was then constructed to determine the Pinaca derivative's concentration in the sample.
All reagents were left to reach room temperature (+15 to +25° C.) prior to use. In order to minimise edge effects microtitre plate was sealed with an adhesive plate sealer.
The assay was performed in duplicate. The following layout was used for a test plate where each box represents 2 wells.
• a) The following was pipetted into the appropriate wells of the microtitre plate:
• b) The microtitre plate was gently tapped plate from side to side for a few seconds. • c) The microtitre plate was covered with a plate sealer before incubating for 30 minutes at room temperature (+15 to +25° C.) in the dark. • d) The plate was inverted and the liquid was tapped out. • e) The plate was washed 6 times with diluted wash buffer (ensuring all wells were filled), over a 10-15 minute period. After the final wash the liquid was discarded and the plate was tapped onto lint free tissue paper until completely dry. • f) Immediately after washing, 125 μL of the one shot substrate II solution was pipetted into each well using a multichannel pipette. The microtitre plate was gently tapped from side to side and incubated for (20±2 minutes) at room temperature (+15 to +25° C.) in the dark. • g) The colour reaction was stopped by the addition of 100 μL of stop solution per well. A colour change from blue to yellow should be evident. • h) The optical density was measured at 450 nm within 10 minutes of stopping the colour reaction. The use of a 630 nm filter is recommended as the reference wavelength, if available. Standard Curve and Interpretation of Results • a) The mean absorbance of the standards, controls and samples were calculated. • b) The absorbances of standards against log10 (standard concentration) were plotted. • c) The control and sample concentrations were read from the standard curve. • d) To obtain concentrations for urine samples in ng/mL, the results were multiplied by 3 to take into account the dilution factor. • e) To obtain concentrations for whole blood samples in ng/mL, the results were multiplied by 4 to take into account the dilution factor. • f) It is recommended that a 4 parameter curve fit method is used when generating the standard curve. Limits of Detection

Structure (SMILES) | % CR (percentage cross-reactivity) [1] [%] | IC50 (standard concentration which produces 50% inhibition of maximal signal) [1] [ng/mL] | B/Bo (Percentage B/B0) ([1]; standard conc 0.31 ng/ml) [%] | OD (absorbance at 450 nm) ([1]; standard conc 0.31 ng/ml) | B/Bo (Percentage B/B0) ([1]; standard conc 0.63 ng/ml) [%] | OD (absorbance at 450 nm) ([1]; standard conc 0.63 ng/ml) | B/Bo (Percentage B/B0) ([1]; standard conc 1.25 ng/ml) [%] | OD (absorbance at 450 nm) ([1]; standard conc 1.25 ng/ml) | B/Bo (Percentage B/B0) ([1]; standard conc 2.50 ng/ml) [%] | OD (absorbance at 450 nm) ([1]; standard conc 2.50 ng/ml) | B/Bo (Percentage B/B0) ([1]; standard conc 5.00 ng/ml) [%] | OD (absorbance at 450 nm) ([1]; standard conc 5.00 ng/ml) | B/Bo (Percentage B/B0) ([1]; standard conc 10.00 ng/ml) [%] | OD (absorbance at 450 nm) ([1]; standard conc 10.00 ng/ml) | B/Bo (Percentage B/B0) ([1]; standard conc 20.00 ng/ml) [%] | OD (absorbance at 450 nm) ([1]; standard conc 20.00 ng/ml) | % Cross-Reactivity [2] [%] | Concentration of compounds that elicit a negative response at the indicated concentration [2] [ng/mL]
CC(C)C(NC(=O)c1nn(CCCCCO)c2ccccc12)C(N)=O (stereo not shown) [1-(5-OHpentyl) AB-Pinaca, 1-(5-hydroxypentyl) AB-Pinaca] | 124.80 | 0.887 | 68.9 | 1.415 | 56.6 | 1.163 | 43.6 | 0.896 | 33.6 | 0.690 | 24.5 | 0.504 | 17.3 | 0.356 | 11.8 | 0.242 | 83.8 | –
CC(C)C(NC(=O)c1nn(CCCCCF)c2ccccc12)C(N)=O (stereo not shown) [5-fluoro AB-Pinaca, 5-fluoropentyl AB-Pinaca] | 203.49 | 0.544 | 60.2 | 1.351 | 47.7 | 1.070 | 36.5 | 0.819 | 28.0 | 0.629 | 20.6 | 0.462 | 14.5 | 0.326 | 10.1 | 0.227 | 98.9 | –
CC(C)C(NC(=O)c1nn(Cc2ccc(F)cc2)c2ccccc12)C(N)=O (stereo not shown) [AB-Fubinaca, N-(1-amino-3-methyl-1-oxobutan-2-yl)-1-(4-fluorobenzyl)-1H-indazole-3-carboxamide] | 71.60 | 1.546 | 72.0 | 1.541 | 64.4 | 1.379 | 52.3 | 1.120 | 42.7 | 0.915 | 32.4 | 0.695 | 22.9 | 0.491 | 15.7 | 0.337 | 35.3 | –
CC(C)C(NC(=O)c1nn(CCCCC(=O)O)c2ccccc12)C(N)=O (stereo not shown) [AB-Pinaca pentanoic acid] | 64.25 | 1.723 | 77.4 | 1.698 | 69.7 | 1.529 | 55.8 | 1.223 | 42.2 | 0.926 | 30.7 | 0.673 | 21.2 | 0.465 | 14.5 | 0.317 | 100 | –
CCCCCn1nc(C(=O)NC(C(N)=O)C(C)C)c2ccccc21 (stereo not shown) [AB-Pinaca, N-(1-amino-3-methyl-1-oxobutan-2-yl)-1-pentyl-1H-indazole-3-carboxamide] | 100.00 | 1.107 | 70.1 | 1.532 | 60.7 | 1.325 | 47.4 | 1.036 | 35.6 | 0.778 | 27.2 | 0.593 | 18.5 | 0.404 | 12.2 | 0.267 | 52.4 | –
CCCCCn1cc(C(=O)c2ccc(OC)cc2)c2ccccc21 [RCS-4] | – | – | – | – | – | – | – | – | – | – | – | – | – | – | – | – | <1 | –
COc1ccccc1CC(=O)c1cn(CCC2CCCCC2)c2ccccc12 [RCS-8] | – | – | – | – | – | – | – | – | – | – | – | – | – | – | – | – | – | 100
CNC(=C[N+](=O)[O-])NCCSCc1ccc(CN(C)C)o1 [Ranitidine HCl] | – | – | – | – | – | – | – | – | – | – | – | – | – | – | – | – | – | 10000
O=C(O)CCCCn1cc(C(=O)NC23CC4CC(CC(C4)C2)C3)c2ccccc21 [SDB-001 N-Pentanoic acid] | – | – | – | – | – | – | – | – | – | – | – | – | – | – | – | – | <1 | –
O=C(NC12CC3CC(CC(C3)C1)C2)c1cn(CCCCCF)c2ccccc12 [STS-135] | – | – | – | – | – | – | – | – | – | – | – | – | – | – | – | – | – | 100
O=C(c1cccc2ccccc12)c1nn(CCCCCF)c2ccccc12 [THJ 2201] | – | – | – | – | – | – | – | – | – | – | – | – | – | – | – | – | – | 100
CC1(C)C(C(=O)c2cn(CCCCC(=O)O)c3ccccc23)C1(C)C [UR-144 N-Pentanoic acid] | – | – | – | – | – | – | – | – | – | – | – | – | – | – | – | – | – | 100
CCCCCn1cc(C(=O)C2C(C)(C)C2(C)C)c2ccccc21 [UR-144] | – | – | – | – | – | – | – | – | – | – | – | – | – | – | – | – | – | 100
CC1(C)C(C(=O)c2cn(CCCCCF)c3ccccc23)C1(C)C [XLR-11] | – | – | – | – | – | – | – | – | – | – | – | – | – | – | – | – | – | 100

From patent US10509046B2, “Detection of indazole synthetic cannabinoids” (Randox Laboratories Limited, priority 2014, dated 2019)
